ChEMBL document CHEMBL2073926, “Cloning and functional expression of a mouse liver organic cation transporter” (Hepatology, 1999)

How the values were obtained:
[1] = target: T1, Solute carrier family 22 member 1 (Mus musculus, UniProt O08966); assay: in vitro; settings: xenopus laevis, probe TEA (140 uM)
T1 sequence (O08966 whole entry): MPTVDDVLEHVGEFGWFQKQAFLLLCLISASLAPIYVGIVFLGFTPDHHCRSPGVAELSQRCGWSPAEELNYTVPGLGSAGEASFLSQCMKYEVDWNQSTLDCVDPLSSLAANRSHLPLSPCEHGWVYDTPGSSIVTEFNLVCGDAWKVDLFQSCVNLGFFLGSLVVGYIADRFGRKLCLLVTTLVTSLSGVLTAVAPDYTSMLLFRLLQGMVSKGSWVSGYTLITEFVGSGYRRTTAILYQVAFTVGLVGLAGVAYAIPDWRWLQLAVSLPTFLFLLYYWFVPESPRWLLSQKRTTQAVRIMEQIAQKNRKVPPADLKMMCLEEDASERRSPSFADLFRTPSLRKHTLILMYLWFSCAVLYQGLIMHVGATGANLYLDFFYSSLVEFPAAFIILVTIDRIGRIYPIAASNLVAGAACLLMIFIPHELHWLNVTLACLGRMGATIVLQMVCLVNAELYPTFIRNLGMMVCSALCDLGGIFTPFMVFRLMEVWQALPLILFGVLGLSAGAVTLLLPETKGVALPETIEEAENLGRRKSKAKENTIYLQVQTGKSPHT
Description: TP_TRANSPORTER: inhibition of TEA uptake (TEA: 140 uM, Thiamine: 1000 uM) in Xenopus laevis oocytes

[2] = target: T1, Solute carrier family 22 member 1; assay: TP_TRANSPORTER: inhibition of TEA uptake (TEA: 140 uM, Procainamide: 10000 uM) in Xenopus laevis oocytes; type: functional, cell-based, Oocyte; set-up: scale not given: the % may be the effect or the level left; settings: probe TEA (140 uM), read-out: Activity
[3] = substrate: CC[N+](CC)(CC)CC; assay: cells, lysate or membranes named

Cc1ncc(C[n+]2csc(CCO)c2C)c(N)n1 [THIAMINE ION]
activity at 1000 µM [1]: 12.7%

CCN(CC)CCNC(=O)c1ccc(N)cc1 [PROCAINAMIDE]
activity at 10000 uM [2]: 30.1%

B1: Solute carrier family 22 member 1 (Mus musculus) (protein)
chain: MPTVDDVLEHVGEFGWFQKQAFLLLCLISASLAPIYVGIVFLGFTPDHHCRSPGVAELSQRCGWSPAEELNYTVPGLGSAGEASFLSQCMKYEVDWNQSTLDCVDPLSSLAANRSHLPLSPCEHGWVYDTPGSSIVTEFNLVCGDAWKVDLFQSCVNLGFFLGSLVVGYIADRFGRKLCLLVTTLVTSLSGVLTAVAPDYTSMLLFRLLQGMVSKGSWVSGYTLITEFVGSGYRRTTAILYQVAFTVGLVGLAGVAYAIPDWRWLQLAVSLPTFLFLLYYWFVPESPRWLLSQKRTTQAVRIMEQIAQKNRKVPPADLKMMCLEEDASERRSPSFADLFRTPSLRKHTLILMYLWFSCAVLYQGLIMHVGATGANLYLDFFYSSLVEFPAAFIILVTIDRIGRIYPIAASNLVAGAACLLMIFIPHELHWLNVTLACLGRMGATIVLQMVCLVNAELYPTFIRNLGMMVCSALCDLGGIFTPFMVFRLMEVWQALPLILFGVLGLSAGAVTLLLPETKGVALPETIEEAENLGRRKSKAKENTIYLQVQTGKSPHT
Km [3]: 38 µM
